Measured values as given in patent US12622912B2, “Application of pyrido[1,2-a]pyrimidinone analog” (GUANGZHOU JOYO PHARMATECH CO., LTD, priority 2021, dated 2026).
pIC50: −log10 of the molar value.

Assays:
[1] = biological target: T1, human PI3K p110α (E545K)/p85α (Homo sapiens, UniProt P42336, E545K); assay: HTRF kinase activity assay, E545K mutant; format: biochemical
T1 construct: purchased Millipore 14-783
Description: (§1) Main reagents: human PI3K p110α/p85α (purchased from Promega, Cat. No. V1721), human PI3K p110α (E542K)/p85α (purchased from Millipore, Cat. No. 14-782), human PI3K p110α (E545K)/p85α (purchased from Millipore, Cat. No. 14-783) and human PI3K p110α (H1047R)/p85α (purchased from Millipore, Cat. No. 14-792)
(§2) 1) Compound was prepared. The initial concentration of compound I was 100 nM, and was serially diluted 3-fold to 10 concentrations and transferred to the test plate.
(§3) 2) Human PI3K p110α/p85α, human PI3K p110α (E542K)/p85α, human PI3K p110α (E545K)/p85α or human PI3K p110α (H1047R)/p85α and assay buffer (10 μM phosphatidylinositol 4,5-bisphosphate and Mg/ATP) were incubated. The reaction was initiated by adding ATP solution and incubated for 30 min.
(§4) 3) After incubation for 30 minutes, the reaction was terminated by adding stop solution. The stop solution contained EDTA, biotinylated phosphatidylinositol-3,4,5-trisphosphate.
(§5) 4) Detection buffer was added, europium-tagged anti-GST monoclonal antibody, GST-tagged GRP1 PH domain, and streptavidin allophycocyanin.
(§6) 5) The plate was read and the HTRF value was calculated according to the formula HTRF=10000×(Em665 nm/Em620 nm). GraphPad Prism 5.0 software was used, and a S-type dosage-survival rate curve was drawn using a nonlinear regression model and IC50 value was calculated.

[2] = system: human breast cancer BT-474 subcutaneous xenograft tumor; assay: In vivo efficacy, BT-474 subcutaneous xenograft tumor model; set-up: species or system BALB/c nude mice; details: oral, once a day for 20 days; for Tumor volume (Day 20): Mean ± SEM; for T/C / TGI: day 20, vs Solvent 2
Description: Experimental purpose: Study the in vivo efficacy of the test drug on human breast cancer BT-474 subcutaneous xenograft tumor BALB/c nude mouse model.
(1) Cell culture: human breast cancer BT-474 cells were monolayer cultured in vitro. The culture conditions were that 10% fetal bovine serum, 100 U/ml penicillin (purchased from Gibco) and 100 μg/ml chain Mycin (purchased from Gibco) were added to Hybri-Care medium, and cultured at 37° C. and 5% CO2. Routine digestion and passage were performed with trypsin-EDTA (purchased from Gibco, product number: 25200-072) twice a week. When the cell saturation was 80%-90%, the cells are harvested, counted and inoculated.
(2) Animals: BALB/c nude mice, female, 6 weeks old, weighing 16-18 grams. Provided by Shanghai Sippe-Bk Lab Animal Co., Ltd.
(3) Control article: • Both PF05212384 and Everolimus were purchased from Shanghai TOPSCIENCE Biochemical Technology Co., Ltd.
(4) Tumor inoculation: 0.2 ml (1×10^7) BT-474 cells (matrigel was added, volume 1:1) were subcutaneously inoculated on the right back of each mouse, and the mice were divided into groups and administered with drugs when the average tumor volume reached 122 mm^3. See Table 10 below for the experimental grouping and dosing regimen.

[3] = biological target: T2, human PI3K p110α (E542K)/p85α (Homo sapiens, UniProt P42336, E542K); assay: HTRF kinase activity assay, E542K mutant; format: biochemical
T2 construct: purchased Millipore 14-782
Description: as §1, §2, §3, §4, §5, §6

[4] = system: C-33A PIK3CA-mutated cervical cancer cell line; assay: CTG cell proliferation, C-33A; format: cell-based; details: Homo sapiens, 72 hours, read-out: Absolute IC50
From the text: (2) Reagents • 1) FBS (fetal bovine serum) (purchased from ExCell, product number: FND500); • 2) RPMI1640 medium (purchased from Hyclone, product number: SH30809.01); • 3) McCoy's 5A medium (purchased from Gibco, product number: 12330-031); • 4) MEM medium (purchased from Hyclone, product number: SH30024.01; • 5) MEM NEAA (purchased from Gibco, product number: 11140-050); • 6) Sodium pyruvate (purchased from Gibco). (3) Test Article and Positive Control Article • Test article: compound I; Positive Control Article: • 1) Alpelisib, molecular weight: 441.47; solvent: DMSO; storage condition after dissolution: −20° C.; supplier: Shanghai TOPSCIENCE Biochemical Technology Co., Ltd., CAS number: 1217486-61-7; • 2) Cisplatin, molecular weight: 300.05; solvent: PBS (phosphate buffer saline); storage condition: 2-8° C.; supplier: Qilu Pharmaceutical. (4) The CTG Method was Used to Determine the Cell Proliferation IC50 of the Compound
Step 1: Cells in exponential growth phase were harvested, and viable cells were counted with a Vi-Cell XR cytometer. The cell suspension was adjusted to an appropriate concentration with medium. 90 μL of cell suspension was added to each well of a 96-well cell culture plate, and the final cell concentration was 1500-6000 cells/well. […]
Step 3: After 72 hours of drug treatment, 50 μL (½ culture volume) CTG solution that was melted and equilibrated to room temperature was added to each well according to the CTG operation instruction. […] After 10 minutes, the fluorescence signal value was measured with an Envision2104 plate reader.
Cell survival rate was calculated using the formula: Vsample/Vvehicle control×100%. Where, Vsample was the reading of the drug treatment group, and Vvehicle control was the average value of the solvent control group. GraphPad Prism 5.0 software was used, and a S-type dosage-survival rate curve was drawn using a nonlinear regression model and IC50 value was calculated.

T1 sequence (P42336 whole entry E545K): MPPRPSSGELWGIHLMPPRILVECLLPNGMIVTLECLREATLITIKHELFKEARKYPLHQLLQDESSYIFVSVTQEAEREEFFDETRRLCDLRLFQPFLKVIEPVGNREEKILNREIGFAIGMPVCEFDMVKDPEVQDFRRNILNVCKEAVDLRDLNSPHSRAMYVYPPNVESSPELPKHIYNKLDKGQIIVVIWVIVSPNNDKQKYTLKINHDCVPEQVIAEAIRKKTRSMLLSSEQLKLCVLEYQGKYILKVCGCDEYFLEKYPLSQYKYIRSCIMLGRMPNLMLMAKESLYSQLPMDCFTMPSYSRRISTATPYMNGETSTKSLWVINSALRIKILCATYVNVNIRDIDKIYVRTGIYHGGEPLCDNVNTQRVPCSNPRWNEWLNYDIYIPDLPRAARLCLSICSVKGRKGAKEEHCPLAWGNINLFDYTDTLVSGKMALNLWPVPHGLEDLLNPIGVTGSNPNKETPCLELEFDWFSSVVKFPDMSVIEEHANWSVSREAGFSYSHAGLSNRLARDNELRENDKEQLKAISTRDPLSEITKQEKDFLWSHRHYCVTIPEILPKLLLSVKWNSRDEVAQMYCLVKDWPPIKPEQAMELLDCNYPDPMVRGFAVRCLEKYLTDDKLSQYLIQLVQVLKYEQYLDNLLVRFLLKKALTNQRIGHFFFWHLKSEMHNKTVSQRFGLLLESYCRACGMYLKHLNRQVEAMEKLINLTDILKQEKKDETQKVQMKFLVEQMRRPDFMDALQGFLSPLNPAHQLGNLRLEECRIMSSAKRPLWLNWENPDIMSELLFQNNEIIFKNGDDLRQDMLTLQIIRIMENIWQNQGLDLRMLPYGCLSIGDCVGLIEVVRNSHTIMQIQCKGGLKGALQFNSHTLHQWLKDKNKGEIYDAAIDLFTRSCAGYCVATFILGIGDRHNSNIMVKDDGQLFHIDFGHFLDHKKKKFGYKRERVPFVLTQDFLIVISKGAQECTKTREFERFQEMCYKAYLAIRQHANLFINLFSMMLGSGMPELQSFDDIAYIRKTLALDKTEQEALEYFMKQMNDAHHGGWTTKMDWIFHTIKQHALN
T1 sequence (P27986 whole entry partner): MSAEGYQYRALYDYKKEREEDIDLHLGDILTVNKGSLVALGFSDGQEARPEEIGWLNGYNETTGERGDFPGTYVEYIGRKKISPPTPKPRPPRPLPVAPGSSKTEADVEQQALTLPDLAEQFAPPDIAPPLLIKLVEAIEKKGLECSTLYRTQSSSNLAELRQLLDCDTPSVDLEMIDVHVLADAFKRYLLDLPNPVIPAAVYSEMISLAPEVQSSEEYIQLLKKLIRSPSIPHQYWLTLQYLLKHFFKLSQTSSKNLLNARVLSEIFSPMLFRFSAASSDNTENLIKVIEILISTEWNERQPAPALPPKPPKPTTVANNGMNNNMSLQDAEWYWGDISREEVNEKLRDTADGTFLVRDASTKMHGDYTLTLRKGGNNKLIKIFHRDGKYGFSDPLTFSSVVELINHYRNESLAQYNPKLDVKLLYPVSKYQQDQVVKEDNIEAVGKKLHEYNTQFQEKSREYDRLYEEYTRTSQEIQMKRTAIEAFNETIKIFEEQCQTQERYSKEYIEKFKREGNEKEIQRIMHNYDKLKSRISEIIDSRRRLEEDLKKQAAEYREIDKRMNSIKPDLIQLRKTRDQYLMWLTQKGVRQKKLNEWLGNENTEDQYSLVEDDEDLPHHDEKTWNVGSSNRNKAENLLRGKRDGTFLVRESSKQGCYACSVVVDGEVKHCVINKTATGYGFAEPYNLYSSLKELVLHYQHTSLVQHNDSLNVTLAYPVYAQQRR
T2 sequence (P42336 whole entry E542K): as the sequence (P42336 whole entry E545K) above, with E542K, K545E counted along it
T2 sequence (P27986 whole entry partner): as the sequence (P27986 whole entry partner) above

pIC50 [1]: 9.00 | pIC50 [3]: 8.52 | pIC50 [4]: 6.74
SMILES: COCCOc1cnc2ccc(-c3cnc(OC)c(NS(=O)(=O)c4sc(C)nc4C)c3)cn2c1=O [Compound I]
Tumor volume (Day 20) ([2]; 0.05 mg/kg): 194 ± 49 mm^3 | T/C ([2]; 0.05 mg/kg): 44% | TGI ([2]; 0.05 mg/kg): 77% | Tumor volume (Day 20) ([2]; 0.1 mg/kg): 94 ± 12 mm^3 | T/C ([2]; 0.1 mg/kg): 23% | TGI ([2]; 0.1 mg/kg): 109% | Tumor volume (Day 20) ([2]; 0.3 mg/kg): 68 ± 8 mm^3 | T/C ([2]; 0.3 mg/kg): 16% | TGI ([2]; 0.3 mg/kg): 118%
